Assay results reported in patent publication US20220324925A1, “THERAPEUTIC PEPTIDES” (COHBAR, INC., priority 2019, published 2022).
Where no end group is shown, it is not given here. [ ]: non-standard residue; d: D form.

Assays:
[1] = test system: 3T3-L1 adipocytes; assay: Free Fatty Acid Levels in cultured 3T3-L1 Adipocytes; conditions: for Free Fatty Acid Levels in 3T3-L1 Adipocytes Expressed as a Percent Isoproterenol Control, Percent of Control Value: test peptides 25 μM, 20-22 hours then isoproterenol (1 nM) 3 hours
Protocol: Following 12-15 days' differentiation, test peptides were added to a final concentration of 25 μM and incubated for 20-22 hours in Adipocyte Maintenance Medium. After 20-22 hours, isoproterenol (1 nM) was added to all wells except untreated controls and test peptides were replenished. Cells were incubated for a further 3 hours in Assay Buffer (Zen-Bio). Free fatty acid concentrations in the media were determined using a Free Fatty Acid Assay Kit (Zen-Bio) according to the manufacturer's instructions using a plate reader (540 nm). Absorbance values were corrected for untreated background and expressed relative to isoproterenol treated cells. Treatment with isoproterenol (1 nM) alone was used as the free fatty acid level stimulatory control. The relative standard deviation of the isoproterenol control was <10%.

[2] = test system: MDA-MB-231 cells; assay: Cell viability, MTS Assay in MDA-MB-231 Cells; conditions: for MTS Assay in MDA-MB-231 Cells, Percent of Control Activity: 72 hours, relative to DMSO control, concentration not given
[3] = test system: MCF-7 cells; assay: Cell viability, MTS Assay in MCF-7 Cells; conditions: test peptides 10 μM, 72 hours, relative to DMSO control
[4] = test system: MDA-MB-231 cells; assay: Caspase 3/7 Activity (Caspase-Glo 3/7 Assay) in MDA-MB-231 cells; assay type: cell-based, human; conditions: test peptides 10 μM, 18 hours, relative to DMSO control
Protocol: The effect of the peptides on cell death/survival can be assessed using a caspase-3 assay. […] MDA-MB-231 cells were grown in DMEM Medium supplemented with 10% FBS. […] Luminescence for each sample well on the plate was measured by Envision 2104 Multilabel Reader (PerkinElmer, Santa Clara, Calif.). Activity was calculated relative to DMSO control.

Compound | Free Fatty Acid Levels in 3T3-L1 Adipocytes Expressed as a Percent Isoproterenol Control, Percent of Control Value [1] [%] | further results
insulin [reference compound] |  | Free fatty acid levels, % of the isoproterenol control value ([1]; insulin 100 nM, positive control): < 5%
10 (SVWKV[dA]VQTFNCYYYVLQ[dA]L) [compound 10] | 46 | 
19 (RCERYTSIPRSEMVN[dA]SIIF) [compound 19] | 78 | 
13 (VSVLESALGRTRV; not fully specified (residue 7)) [compound 13] | 123 | 
12 (MVSVLESALGRTRV) [compound 12] | 124 | MTS Assay in MDA-MB-231 Cells, Percent of Control Activity [2]: 74%; MTS Assay in MCF-7 Cells, Percent of Control Activity [3]: 32%; Caspase 3/7 Activity in MDA-MB-231 Cells, Percent of Control Activity [4]: 44%
2 (PIVLELIPLKIFEIGPVFTL) [compound 2] | 92 | MTS Assay in MDA-MB-231 Cells, Percent of Control Activity [2]: 78%; MTS Assay in MCF-7 Cells, Percent of Control Activity [3]: 71%; Caspase 3/7 Activity in MDA-MB-231 Cells, Percent of Control Activity [4]: 99%
CN[C@@H]1C[C@H]2O[C@@](C)([C@@H]1OC)n1c3ccccc3c3c4c(c5c6ccccc6n2c5c31)C(=O)NC4 [staurosporine, reference compound] |  | Cell viability, % of the DMSO control value ([2]; Staurosporine 10 uM, MDA-MB-231 cells, positive control): 3%
14 (VSVLES[dA]LGRTRV) [compound 14] | 94 | 
15 (VSVLES[dA]LGRTR[dA]) [compound 15] | 126 | 
9 (SVWKVAVQTFNCYYYVLQAL; not fully specified (residues 6, 19)) [compound 9] | 134 | 
5 (P[dA]VLELIPLKIFEI[dA]PVFT) [compound 5] | 84 | 
18 (RCERYTSIPRSEMVNASIIFM) [compound 18] | 96 | 
17 (MRCERYTSIPRSEMVNASIIFM) [compound 17] | 108 | MTS Assay in MDA-MB-231 Cells, Percent of Control Activity [2]: 79%; MTS Assay in MCF-7 Cells, Percent of Control Activity [3]: 54%; Caspase 3/7 Activity in MDA-MB-231 Cells, Percent of Control Activity [4]: 51%
7 (MSVWKVAVQTFNCYYYVLQALIN) [compound 7] | 128 | MTS Assay in MDA-MB-231 Cells, Percent of Control Activity [2]: 83%; MTS Assay in MCF-7 Cells, Percent of Control Activity [3]: 64%; Caspase 3/7 Activity in MDA-MB-231 Cells, Percent of Control Activity [4]: 54%
8 (SVWKVAVQTFNCYYYVLQALIN) [compound 8] | 117 | 
3 (PIVLELIPLKIFEIGPVFTL) [compound 3] | 68 | 
20 (R[dA]ERYTSIPRSEMVN[dA]SI[dA]F) [compound 20] | 96 | 
